Values of other authors as cited in patent US20220347144A1, “COMPOSITIONS AND METHODS FOR PREVENTING AND/OR REDUCING WEIGHT GAIN AND ASSOCIATED CONDITIONS” (University of Virginia Patent Foundation, priority 2019, published 2022).

Tests used:
rats [1] = conditions: triglyceride form, Kojima et al., 2010; cited from earlier work
rats [2] = conditions: in rapeseed oil, Hulan et al., 1977; cited from earlier work

Row | Compound | obesity (rats [1]) | heart lesions (rats [2])
1 | CCCCCCCCCCCCCCCCCCCCCC(=O)O [behenic acid] | prevented obesity | –
2 | CCCCCCCC/C=C\CCCCCCCCCCCC(=O)O [erucic acid, (Z)-docos-13-enoic acid] | – | implicated in causing heart lesions
